The target in this test is T1, VASP (vasodilator-stimulated phosphoprotein) (Homo sapiens, UniProt P50552).
T1 construct: recombinant VASP expressed in E. coli Rosetta (IPTG, 18 °C), as previously described
In words: intrinsic tryptophan fluorescence quenching titration (excitation […] nm). Format: binding. The following applies: 25 °C; 0.4 μM VASP; berberine 0 to 3.4 μM.

One may read the Kd as the concentration at which binding is half-saturated. Low readings indicate higher affinity, high ones lower affinity.

T1 sequence (P50552 2-380): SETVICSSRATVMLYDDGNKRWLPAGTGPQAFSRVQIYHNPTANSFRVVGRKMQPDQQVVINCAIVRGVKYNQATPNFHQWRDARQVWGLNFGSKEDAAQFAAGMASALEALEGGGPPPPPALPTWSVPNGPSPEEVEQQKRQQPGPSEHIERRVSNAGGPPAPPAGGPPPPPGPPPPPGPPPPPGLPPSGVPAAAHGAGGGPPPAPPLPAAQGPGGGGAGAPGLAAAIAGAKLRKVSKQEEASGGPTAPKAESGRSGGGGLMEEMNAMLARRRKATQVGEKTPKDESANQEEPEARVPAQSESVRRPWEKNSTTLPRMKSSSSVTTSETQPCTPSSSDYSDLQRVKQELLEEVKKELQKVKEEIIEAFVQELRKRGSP

`COc1ccc2cc3[n+](cc2c1OC)CCc1cc2c(cc1-3)OCO2` [berberine] yielded a Kd of 100 nM. In other words, the sub-micromolar range.

For the origin of these results see publication PMC5216765, “Tumor suppressor berberine binds VASP to inhibit cell migration in basal-like breast cancer” (Oncotarget, 2016).
